Consider one compound from PMC7604414, “Favipiravir at high doses has potent antiviral activity in SARS-CoV-2−infected hamsters, whereas hydroxychloroquine lacks activity” (Proceedings of the National Academy of Sciences of the …, 2020).

The structures appear in SMILES notation.

The test system of test [1] is SARS-CoV-2. Also noted: species or system Syrian hamsters. Particulars: hamster, in vivo.
Test [2] deals with SARS-CoV-2. Details: method as in PMID 33741945. Particulars: upon favipiravir treatment; cited from earlier work.

For the compound `NC(=O)c1nc(F)c[nH]c1=O` [favipiravir], the “increase in mean virus variants vs untreated hamsters” value in test [1] worked out at 3.2 fold. Also, in test [2], the “increase of mean number of mutations in the viral RNA, factor” value was “more than three”.
